The text below walks through data of patent publication US6136810A, “Pyrido[2,3-D]pyrimidine derivatives and pharmaceutical compositions thereof” (priority 1995, dated 2000).

Where two headings read alike, the source gives them in different places.

Experiment [1] addresses type IV phosphodiesterase. Description: Type IV phosphodiesterase inhibition activity measuring test (in vitro). Type of experiment: biochemical. To be noted: human granulocyte type IV PDE, 1 μM cAMP, 30° C. The procedure: The following assay was used for the evaluation of the capability of the compounds of the present invention to inhibit type IV phosphodiesterase.
1) Physiological saline (200 ml) supplemented with dextran (3%) was added to 500 ml of heparinized peripheral blood of a healthy person and incubated at 37° C. for 40 minutes to effect precipitation of erythrocytes. The supernatant after precipitation of erythrocytes was recovered and centrifuged once, and the resulting precipitate was suspended in buffer A (140 mM NaCl, 5 mM KCl, 5 mM glucose and 10 mM HEPES, pH 7.4), overlaid on a solution for density gradient centrifugation use (Ficoll solution) and then centrifuged at room temperature for 40 minutes at 450×g, thereby separating monocyte fraction and granulocyte fraction. The granulocyte fraction was washed once with buffer B (140 mM NaCl, 5 mM KCl; 1 mM CaCl2, 1 mM MgCl2, 5 mM glucose and 10 mM HEPES, pH 7.4) and suspended in buffer C (20 mM Bis-Tris, 5 mM dithioerythritol, 2 mM EGTA and 50 mM sodium acetate, pH 6.5) containing a protease inhibitor (50 μM phenyl-methyl-sulfonyl-fluoride, 5 μM pepstatin A, 40 μM leupeptin, 20 μM aprotinin or 2 mM benzamidine) and then the cells were disrupted using polytron and sonicator and subjected to ultracentrifugation (4° C., 100,000×g, 60 minutes) to give a soluble fraction.
2) The thus obtained soluble fraction was applied to a column of 1.6×10 cm packed with Q Sepharose which had been equilibrated with buffer C. Next, the column was washed with 300 ml of buffer C to remove non-absorbed protein. Phosphodiesterase was eluted with 200 ml of buffer C having 0.05 to 1.25 M linear gradient of sodium acetate to collect 40 fractions each containing 5.0 ml eluate. Each fraction was checked for cAMP- and cGMP-metabolizing phosphodiesterase activities. Fractions having no cGMP- but cAMP-metabolizing activity and showing disappearance of the metabolizing activity by 10 μM rolipram (a type IV phosphodiesterase selective inhibitor) were collected to be used as a stock solution for the examination of type IV phosphodiesterase inhibition activity.
3) A predetermined amount of each compound to be tested was subjected to 10 minutes of reaction at 30° C. in a reaction mixture containing 40 mM Tris-HCl (pH 8.0), 5 mM MgCl2, 4 mM 2-mercaptoethanol, 0.3 μM cilostamide (an III type phosphodiesterase selective inhibitor), 1 μM cAMP, 10 nM ^3 H-cAMP and the type IV phosphodiesterase stock solution. The reaction solution was boiled at 90° C. for 1 minute, cooled in an ice bath, mixed with 1 unit of 5'-nucleotidase and then subjected to 10 minutes of reaction at 30° C., and the reaction was stopped by the addition of 1 ml of methanol. The reaction solution was passed through a Dowex 1×8 column to adsorb un-hydrolyzed material and then the radioactivity was measured.
4) Concentration of each compound to be tested which inhibits 50% of the metabolic activity of type IV phosphodiesterase was calculated and expressed as IC50. Test results: Results of the measurement of the activity of the compounds of the present invention to inhibit type IV PDE are shown in Tables 1 and 2, together with the results of the compounds illustratively disclosed in the aforementioned U.S. Patent and similar comparative compounds which were separately synthesized.

Experiment [2] deals with I, II, III and V type phosphodiesterase isozymes. The experiment in a line: Activity to inhibit various phosphodiesterase isozymes (selectivity for type IV). The experiment is classed as biochemical, rat (types I, III); human (type V). The following applies: IC50 ratio vs types I. The source says:
[A] In order to evaluate selectivity of the compounds of the present invention for type IV phosphodiesterase, I, II, III and V type phosphodiesterase isozymes were purified in the following manner.
1) Solutions containing various phosphodiesterase (I, II and III types) isozymes were purified from rat heart muscle cells in the following manner. Under ether anesthesia, Wistar rat was subjected to thoracotomy to excise the heart. After removing blood by perfusion with physiological saline supplemented with heparin (1 unit/ml), the heart was finely chopped with scissors.
2) Solutions containing various phosphodiesterase isozymes were obtained from the thus obtained soluble fraction in the following manner. […] Each fraction was checked for cAMP- and cGMP-metabolizing phosphodiesterase activities. […] These fractions were separately collected to be used as phosphodiesterase (types I, II and III) stock solutions for the examination of selectivity.
3) A solution containing type V phosphodiesterase was prepared from peripheral blood of a healthy person in the following manner. A 200 ml portion of physiological saline supplemented with dextran (3%) was added to 500 ml of heparinized peripheral blood and incubated at 37° C. for 40 minutes to effect precipitation of erythrocytes. The supernatant fluid after precipitation of erythrocytes was recovered and centrifuged once, and the resulting precipitate was suspended in buffer B (140 mM NaCl, 5 mM KCl, 5 mM glucose and 10 mM HEPES, pH 7.4), overlaid on a solution for density gradient centrifugation use (Ficoll solution) and then centrifuged at room temperature for 40 minutes at 450×g, thereby separating monocyte fraction and granulocyte fraction.
Each fraction was checked for cAMP- and cGMP-metabolizing phosphodiesterase activities. Fractions having only cGMP metabolizing activity were collected to be used as the type V phosphodiesterase stock solution.
[B] Inhibitory activities were measured using the thus obtained stock solutions of various phosphodiesterase isozymes.
After completion of the reaction, the reaction mixture was boiled at 90° C. for 1 minute, cooled in an ice bath, mixed with 1 unit of 5'-nucleotidase and then subjected to 10 minutes of reaction at 30° C., and the reaction was stopped by adding 1 ml of methanol. The reaction solution was passed through a Dowex 1×8 column to effect adsorption of un-metabolized cAMP or cGMP and then radioactivity in the eluate was measured using a scintillation counter.

Where [3] appears, read: Table 2, read-out: Type IV PDE Inhibition IC50.
The mark [4] stands for this setting: Table 1, read-out: Type IV PDE inhibition activity IC50.

The IC50 is the concentration needed to halve the response being measured. Consider `CCc1ccc2c(-c3cccc(Cl)c3)nc(=O)n(CC)c2n1` [Example 1, 4-(3-chlorophenyl)-1,7-diethylpyrido[2,3-d]pyrimidin-2(1H)-one], for which the IC50 in experiment [1] (setting [3]) came out at 0.81 nM. For the same compound, the “selectivity in inhibition activity against type IV PDE over the other types of PDE” value (“selectivity in inhibition activity” for short) in experiment [2] is listed as ≥ 1000 times. `CCc1ccc2c(-c3cccc(Br)c3)nc(=O)n(CC)c2n1` [Example 2, 4-(3-Bromophenyl)-1,7-diethylpyrido[2,3-d)pyrimidin-2(1H)-one]: the IC50 in experiment [1] (setting [3]) turned out to be 1.15 nM. As to `CCn1c(=O)nc(-c2cccc(Cl)c2)c2ccc(C)nc21` [Example 3, 4-(3-Chlorophenyl)-1-ethyl-7-methylpyrido[2,3-d]pyrimidin-2(1H)-one], the half-maximal inhibitory concentration (IC50) in experiment [1] (setting [3]) amounted to 2.32 nM. For the same compound, in experiment [2], the “selectivity in inhibition activity” value is on record as ≥ 1000 times. As to `CCn1c(=O)nc(-c2cccc(Br)c2)c2ccc(C)nc21` [Example 4, 4-(3-Bromophenyl)-1-ethyl-7-methylpyrido[2,3-d]pyrimidin-2(1H)-one], in experiment [1] (setting [3]), the half-maximal inhibitory concentration (IC50) was 1.45 nM. The “selectivity in inhibition activity” value in experiment [2] is ≥ 1000 times.

For `CCn1c(=O)nc(-c2cccc(C)c2)c2ccc(C)nc21` [Example 5, 1-Ethyl-7-methyl-4-(3-methylphenyl)-pyrido[2,3-d]pyrimidin-(1H)-one], in experiment [1] (setting [3]), the half-inhibitory concentration (IC50) stood at 3.5 nM.

As for `CCc1ccc2c(-c3cccc(C)c3)nc(=O)n(CC)c2n1` [Example 6, 1,7-Diethyl-4-(3-methylphenyl)pyrido[2,3-d]pyrimidin-2(1H)-one], the IC50 in experiment [1] (setting [3]) was determined as 3.7 nM. For `CCn1c(=O)nc(-c2cccc(Cl)c2)c2ccc(C(C)O)nc21` (centres unmarked) [Example 19, 4-(3-chlorophenyl)-1-ethyl-7-(1-hydroxyethyl)pyrido[2,3-d]pyrimidin-2(1H)-one], in experiment [1] (setting [4]), the IC50 was 8.08 nM. The “selectivity in inhibition activity” value in experiment [2] is given as ≥ 1000 times. With `CCn1c(=O)nc(-c2cccc(Cl)c2)c2ccc(C3CC3)nc21` [Example 22, 4-(3-Chlorophenyl)-7-cyclopropyl-1-ethylpyrido[2,3-d]pyrimidin-2(1H)-one], the IC50 in experiment [1] (setting [4]) was determined as 7.8 nM. For the compound `Cc1cccc(-c2nc(=O)n(CC3CC3)c3nc(C)ccc23)c1` [Example 33, 1-Cyclopropylmethyl-7-methyl-4-(3-methylphenyl)pyrido[2,3-d]pyrimidin-2(1H)-one], the IC50 in experiment [1] (setting [4]) came to 6.19 nM. On to `CCc1ccc2c(C3CCCCC3)nc(=O)n(CC)c2n1` [Example 34, 4-Cyclohexyl-1,7-diethylpyrido[2,3-d]pyrimidin-2(1H)-one], for which the IC50 in experiment [1] (setting [4]) was 1.47 nM. Turning to `CCn1c(=O)nc(-c2cccc(Cl)c2)c2ccc(C=NO)nc21` [Example 36, 4-(3-chlorophenyl)-1-ethyl-7-hydroxyiminomethylpyrido[2,3-d]pyrimidin-2(1H)-one], the IC50 in experiment [1] (setting [4]) amounted to 0.93 nM.

Turning to `CCn1c(=O)nc(-c2cccc([N+](=O)[O-])c2)c2ccc(C)nc21` [Example 37, 1-Ethyl-7-methyl-4-(3-nitrophenyl)-pyrido[2;3-d]pyrimidin-2(1H)-one], the IC50 in experiment [1] (setting [4]) amounted to 4.75 nM. Regarding `CCn1c(=O)nc(-c2cccc(Cl)c2)c2ccc(C(C)SC(C)=O)nc21` (centres unmarked) [Example 40, 7-(1-acetylthioethyl)-4-(3-chlorophenyl)-1-ethylpyrido[2,3-d]pyrimidin-2(1H)-one], the IC50 in experiment [1] (setting [4]) was 5.79 nM.

Consider `CCc1ccc2c(-c3cccc(Cl)c3)nc(=S)n(CC)c2n1` [Example 41, 4-(3-Chlorophenyl)-1,7-diethylpyrido[2,3-d]pyrimidin-2(1H)-thione], for which the IC50 in experiment [1] (setting [4]) was determined as 0.85 nM.

Take `CCn1c(=O)nc(-c2ccccc2Cl)c2cccnc21` [compound 1, 4-(2-chlorophenyl)-1-ethylpyrido[2,3-d]pyrimidin-2(1H)-one, reference compound]: the IC50 in experiment [1] (setting [3]) turned out to be 2840 nM. Still for that read-out and setting: the result for `CC(C)n1c(=O)nc(-c2ccc(Cl)cc2)c2cccnc21` [compound 2, reference compound] reads > 3000 nM; that for `CCn1c(=O)nc(-c2ccc(Cl)cc2)c2cccnc21` [compound 3, 4-(4-chlorophenyl)-1-ethylpyrido[2,3-d]pyrimidin-2(1H)-one, reference compound], > 3000 nM; that for `CC(C)n1c(=O)nc(-c2ccc(Cl)c(Cl)c2)c2cccnc21` [compound 4, reference compound], > 3000 nM. On the same count and under the same terms, the figure for `CCn1c(=O)nc(-c2ccc(Cl)c(Cl)c2)c2cccnc21` [compound 5, 4-(3,-4-dichlorophenyl)-1-ethylpyrido[2,3-d]pyrimidin-2(1H)-one, reference compound] is > 3000 nM; for `CC(C)n1c(=O)nc(-c2cccc(Cl)c2)c2cccnc21` [compound 6, 4-(3-chlorophenyl)-1-isopropylpyrido[2,3-d]pyrimidin-2(1H)-one, reference compound] it is 803 nM; for `CCn1c(=O)nc(-c2cccc(Cl)c2)c2cccnc21` [compound 7, 4-(3-chlorophenyl)-1-ethylpyrido[2,3-d]pyrimidin-2(1H)-one, reference compound] it is 308 nM. Take `CCn1c(=O)nc(-c2cccc(C)c2)c2cccnc21` [compound 8, 4-(3-methylphenyl)-1-ethylpyrido[2,3-d]pyrimidin-2(1H)-one, reference compound]: the IC50 in experiment [1] (setting [3]) was 612 nM.
